System: DLD-1 human colon adenocarcinoma cells
Test: In vivo anti-tumor study, staged model
Design: species or system Nude mice
Conditions: dosing from day 10
Procedure: Staged Model. In this model the initiation of therapy was delayed until the tumors had reached a certain volume. Nude mice (5-6 week old females) were inoculated with 5×10^6 DLD-1 human colon adenocarcinoma cells on day 1, and then randomized on day 10. The dosing of these mice was started on day 10. Groups 1 to 5, having 10 mice in each group, were dosed orally every 12 hours with no treatment, vehicle,
[drawing 36] 50 mpk, respectively, for 26 days. All animals were carefully monitored at least daily and each tumor was measured twice a week. The tumor growth inhibition level observed is set forth below in Table 4.

**Q.** What does the source list for `CN(C)CCCNc1nc(CN2CCN(C(c3ccc(Cl)cc3)c3ccc(Cl)cc3)CC2)nc2ccccc12` [drawing 37]?
**A.** % inhibition (tumor growth), staged model (10 mpk orally every 12 hours for 26 days): 10.15%; % inhibition (tumor growth), staged model (30 mpk orally every 12 hours for 26 days): 14.73%; % inhibition (tumor growth), staged model (50 mpk orally every 12 hours for 26 days): 44.31%
